Reference: ChEMBL document CHEMBL4422610, “HDAC as onco target: Reviewing the synthetic approaches with SAR study of their inhibitors” (Eur J Med Chem, 2018)

System: Zea mays
Test: Inhibition of maize HD2 at 5 uM using [3H]acetate-labelled histone as substrate by liquid scintillation counting method relative to control

inhibition [%]	Compound
86.4	Cc1ccc(C(=O)c2cc(/C=C/C(=O)NO)n(C)c2)cc1
87	Cn1cc(C(=O)c2ccc(Cl)cc2)cc1/C=C/C(=O)NO
45	Cn1cc(C(=O)c2ccccc2)cc1CCC(=O)NO
0.2	Cn1cc(C(=O)c2ccccc2)cc1/C=C/C(=O)NN
86	Cn1cc(C(=O)c2ccccc2)cc1/C=C/C(=O)NO

Target: Histone deacetylase 1 (Homo sapiens, UniProt Q13547)
Test: Inhibition of human HDAC1 using fluorogenic HDAC substrate

Chain of Histone deacetylase 1 (Q13547 whole entry): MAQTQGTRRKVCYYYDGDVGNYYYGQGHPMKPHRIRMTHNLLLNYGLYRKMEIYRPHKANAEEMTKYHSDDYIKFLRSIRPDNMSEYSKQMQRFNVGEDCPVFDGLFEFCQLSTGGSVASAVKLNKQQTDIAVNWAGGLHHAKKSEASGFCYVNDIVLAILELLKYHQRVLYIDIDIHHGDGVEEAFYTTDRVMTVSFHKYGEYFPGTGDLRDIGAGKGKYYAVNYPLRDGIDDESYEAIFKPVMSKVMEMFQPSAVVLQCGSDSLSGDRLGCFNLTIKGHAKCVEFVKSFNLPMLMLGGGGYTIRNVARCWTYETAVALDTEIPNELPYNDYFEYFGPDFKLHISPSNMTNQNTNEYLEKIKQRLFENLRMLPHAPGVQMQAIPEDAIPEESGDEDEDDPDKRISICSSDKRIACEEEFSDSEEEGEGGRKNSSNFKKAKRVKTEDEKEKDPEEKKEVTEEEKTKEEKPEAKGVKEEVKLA

IC50 [µM]	Compound
8.1	O=C(NO)c1ccc(CN2c3ccccc3CCC[C@@H]3CCCC[C@H]32)cc1
> 30	O=C(NO)c1ccc(CN2c3ccccc3C[C@@H]3CCCCC[C@H]32)cc1
8.8	O=C(NO)c1ccc(CN2c3cc(C(F)(F)F)ccc3CCC[C@@H]3CCCC[C@H]32)cc1
12	O=C(NO)c1ccc(CN2c3ccccc3C3C2CCS3(=O)=O)cc1 (configuration not stated)

Target: Histone deacetylase 2 (Homo sapiens, UniProt Q92769)
Test: Inhibition of human HDAC2 using fluorogenic HDAC substrate

Chain of Histone deacetylase 2 (Q92769 whole entry): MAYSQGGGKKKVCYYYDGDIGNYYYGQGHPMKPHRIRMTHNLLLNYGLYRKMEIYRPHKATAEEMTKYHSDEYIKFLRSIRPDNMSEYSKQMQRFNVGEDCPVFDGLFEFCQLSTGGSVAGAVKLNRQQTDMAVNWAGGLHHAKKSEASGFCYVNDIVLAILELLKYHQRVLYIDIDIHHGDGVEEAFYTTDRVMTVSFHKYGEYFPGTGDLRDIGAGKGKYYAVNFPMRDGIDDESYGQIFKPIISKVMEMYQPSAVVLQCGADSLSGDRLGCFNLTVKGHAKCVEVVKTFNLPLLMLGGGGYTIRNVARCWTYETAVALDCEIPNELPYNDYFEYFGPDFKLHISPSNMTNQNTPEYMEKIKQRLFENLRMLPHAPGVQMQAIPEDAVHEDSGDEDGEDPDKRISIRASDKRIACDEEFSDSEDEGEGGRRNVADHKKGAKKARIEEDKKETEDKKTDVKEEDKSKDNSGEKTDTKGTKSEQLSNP

IC50 [µM]	Compound
24	O=C(NO)c1ccc(CN2c3ccccc3CCC[C@@H]3CCCC[C@H]32)cc1
16	O=C(NO)c1ccc(CN2c3cc(C(F)(F)F)ccc3CCC[C@@H]3CCCC[C@H]32)cc1
> 30	O=C(NO)c1ccc(CN2c3ccccc3C3C2CCS3(=O)=O)cc1 (configuration not stated)

Target: Histone deacetylase 3 (Homo sapiens, UniProt O15379)
Test: Inhibition of human HDAC3 using fluorogenic HDAC substrate

Chain of Histone deacetylase 3 (O15379 whole entry): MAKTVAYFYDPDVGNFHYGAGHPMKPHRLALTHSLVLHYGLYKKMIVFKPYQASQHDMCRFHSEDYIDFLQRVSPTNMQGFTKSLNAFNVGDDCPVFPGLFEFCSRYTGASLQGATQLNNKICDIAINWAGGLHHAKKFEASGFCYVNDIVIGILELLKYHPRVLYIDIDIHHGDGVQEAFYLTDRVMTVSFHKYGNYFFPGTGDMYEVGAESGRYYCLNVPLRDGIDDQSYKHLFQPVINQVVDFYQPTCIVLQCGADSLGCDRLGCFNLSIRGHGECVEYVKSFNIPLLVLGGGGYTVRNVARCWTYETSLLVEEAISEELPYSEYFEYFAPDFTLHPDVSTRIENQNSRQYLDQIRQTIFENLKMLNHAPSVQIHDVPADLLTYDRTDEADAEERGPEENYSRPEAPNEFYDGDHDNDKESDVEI

IC50 [µM]	Compound
24	O=C(NO)c1ccc(CN2c3ccccc3CCC[C@@H]3CCCC[C@H]32)cc1
> 30	O=C(NO)c1ccc(CN2c3ccccc3C[C@@H]3CCCCC[C@H]32)cc1
18	O=C(NO)c1ccc(CN2c3cc(C(F)(F)F)ccc3CCC[C@@H]3CCCC[C@H]32)cc1

Target: Histone deacetylase 4 (Homo sapiens, UniProt P56524)
Test: Inhibition of human HDAC4 using fluorogenic HDAC substrate

Chain of Histone deacetylase 4 (P56524 whole entry): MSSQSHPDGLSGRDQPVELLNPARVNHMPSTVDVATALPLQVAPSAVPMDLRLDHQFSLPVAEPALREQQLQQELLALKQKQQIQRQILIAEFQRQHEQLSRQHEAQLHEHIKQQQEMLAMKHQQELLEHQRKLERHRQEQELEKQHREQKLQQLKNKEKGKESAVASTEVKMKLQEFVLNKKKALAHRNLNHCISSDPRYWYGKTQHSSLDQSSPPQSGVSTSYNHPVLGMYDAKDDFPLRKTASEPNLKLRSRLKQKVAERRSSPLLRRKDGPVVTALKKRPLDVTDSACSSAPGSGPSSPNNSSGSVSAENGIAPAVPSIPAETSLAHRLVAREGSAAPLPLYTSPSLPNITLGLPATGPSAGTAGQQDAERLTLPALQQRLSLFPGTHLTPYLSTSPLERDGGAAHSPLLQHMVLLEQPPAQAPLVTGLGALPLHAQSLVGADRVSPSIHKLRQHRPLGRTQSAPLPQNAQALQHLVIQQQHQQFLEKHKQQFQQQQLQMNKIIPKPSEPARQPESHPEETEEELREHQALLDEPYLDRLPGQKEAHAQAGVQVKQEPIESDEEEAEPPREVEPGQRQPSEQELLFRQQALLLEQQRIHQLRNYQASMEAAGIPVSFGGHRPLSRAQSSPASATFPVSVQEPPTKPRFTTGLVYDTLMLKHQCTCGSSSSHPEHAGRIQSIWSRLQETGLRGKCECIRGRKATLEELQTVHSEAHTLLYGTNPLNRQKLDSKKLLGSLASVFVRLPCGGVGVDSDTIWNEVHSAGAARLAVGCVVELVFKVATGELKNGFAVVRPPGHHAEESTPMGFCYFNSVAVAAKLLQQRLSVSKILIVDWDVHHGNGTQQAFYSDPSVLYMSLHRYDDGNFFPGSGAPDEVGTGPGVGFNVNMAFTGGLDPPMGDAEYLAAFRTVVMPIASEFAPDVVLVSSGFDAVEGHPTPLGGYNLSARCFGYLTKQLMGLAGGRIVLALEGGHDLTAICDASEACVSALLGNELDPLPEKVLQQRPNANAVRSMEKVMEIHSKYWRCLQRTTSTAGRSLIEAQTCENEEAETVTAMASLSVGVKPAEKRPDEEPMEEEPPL

IC50 [µM]	Compound
> 30	O=C(NO)c1ccc(CN2c3ccccc3CCC[C@@H]3CCCC[C@H]32)cc1
> 30	O=C(NO)c1ccc(CN2c3ccccc3C[C@@H]3CCCCC[C@H]32)cc1
0.6	O=C(NO)c1ccc(CN2c3ccccc3C3C2CCS3(=O)=O)cc1 (configuration not stated)

Target: Histone deacetylase 5 (Homo sapiens, UniProt Q9UQL6)
Test: Inhibition of human HDAC5 using fluorogenic HDAC substrate

Chain of Histone deacetylase 5 (Q9UQL6 whole entry): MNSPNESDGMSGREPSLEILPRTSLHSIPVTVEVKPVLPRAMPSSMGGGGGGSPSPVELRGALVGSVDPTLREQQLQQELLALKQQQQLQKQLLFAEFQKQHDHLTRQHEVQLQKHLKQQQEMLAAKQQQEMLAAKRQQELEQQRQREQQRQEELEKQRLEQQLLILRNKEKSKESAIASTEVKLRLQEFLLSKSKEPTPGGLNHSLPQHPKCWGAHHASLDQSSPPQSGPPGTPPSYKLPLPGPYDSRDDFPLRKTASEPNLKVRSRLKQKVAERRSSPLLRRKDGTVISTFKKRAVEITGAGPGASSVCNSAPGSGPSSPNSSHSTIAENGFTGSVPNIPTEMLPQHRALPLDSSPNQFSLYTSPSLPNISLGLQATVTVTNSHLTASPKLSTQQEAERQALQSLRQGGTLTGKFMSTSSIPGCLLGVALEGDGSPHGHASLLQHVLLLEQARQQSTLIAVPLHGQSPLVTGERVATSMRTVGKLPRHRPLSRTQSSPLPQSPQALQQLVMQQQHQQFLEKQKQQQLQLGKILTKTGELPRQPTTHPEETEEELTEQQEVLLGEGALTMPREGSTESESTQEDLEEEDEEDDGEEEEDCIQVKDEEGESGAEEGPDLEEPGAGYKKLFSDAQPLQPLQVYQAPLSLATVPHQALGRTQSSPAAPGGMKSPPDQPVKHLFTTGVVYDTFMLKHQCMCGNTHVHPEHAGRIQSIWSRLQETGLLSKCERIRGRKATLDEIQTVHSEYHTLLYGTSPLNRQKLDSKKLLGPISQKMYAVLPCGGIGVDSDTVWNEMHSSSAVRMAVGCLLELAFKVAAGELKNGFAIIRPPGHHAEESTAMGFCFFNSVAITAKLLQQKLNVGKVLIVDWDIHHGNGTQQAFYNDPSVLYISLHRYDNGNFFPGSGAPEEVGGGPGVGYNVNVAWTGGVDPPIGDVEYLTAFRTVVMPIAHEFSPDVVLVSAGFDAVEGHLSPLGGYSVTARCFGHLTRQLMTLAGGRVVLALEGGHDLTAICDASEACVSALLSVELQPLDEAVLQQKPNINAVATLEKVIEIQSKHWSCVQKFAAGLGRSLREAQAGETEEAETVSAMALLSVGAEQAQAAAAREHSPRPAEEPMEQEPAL

IC50 [µM]	Compound
9.1	O=C(NO)c1ccc(CN2c3ccccc3CCC[C@@H]3CCCC[C@H]32)cc1
> 30	O=C(NO)c1ccc(CN2c3ccccc3C[C@@H]3CCCCC[C@H]32)cc1
22	O=C(NO)c1ccc(CN2c3cc(C(F)(F)F)ccc3CCC[C@@H]3CCCC[C@H]32)cc1
0.4	O=C(NO)c1ccc(CN2c3ccccc3C3C2CCS3(=O)=O)cc1 (configuration not stated)

Target: T1, Protein deacetylase HDAC6 (Homo sapiens, UniProt Q9UBN7)
T1 sequence (Q9UBN7 whole entry): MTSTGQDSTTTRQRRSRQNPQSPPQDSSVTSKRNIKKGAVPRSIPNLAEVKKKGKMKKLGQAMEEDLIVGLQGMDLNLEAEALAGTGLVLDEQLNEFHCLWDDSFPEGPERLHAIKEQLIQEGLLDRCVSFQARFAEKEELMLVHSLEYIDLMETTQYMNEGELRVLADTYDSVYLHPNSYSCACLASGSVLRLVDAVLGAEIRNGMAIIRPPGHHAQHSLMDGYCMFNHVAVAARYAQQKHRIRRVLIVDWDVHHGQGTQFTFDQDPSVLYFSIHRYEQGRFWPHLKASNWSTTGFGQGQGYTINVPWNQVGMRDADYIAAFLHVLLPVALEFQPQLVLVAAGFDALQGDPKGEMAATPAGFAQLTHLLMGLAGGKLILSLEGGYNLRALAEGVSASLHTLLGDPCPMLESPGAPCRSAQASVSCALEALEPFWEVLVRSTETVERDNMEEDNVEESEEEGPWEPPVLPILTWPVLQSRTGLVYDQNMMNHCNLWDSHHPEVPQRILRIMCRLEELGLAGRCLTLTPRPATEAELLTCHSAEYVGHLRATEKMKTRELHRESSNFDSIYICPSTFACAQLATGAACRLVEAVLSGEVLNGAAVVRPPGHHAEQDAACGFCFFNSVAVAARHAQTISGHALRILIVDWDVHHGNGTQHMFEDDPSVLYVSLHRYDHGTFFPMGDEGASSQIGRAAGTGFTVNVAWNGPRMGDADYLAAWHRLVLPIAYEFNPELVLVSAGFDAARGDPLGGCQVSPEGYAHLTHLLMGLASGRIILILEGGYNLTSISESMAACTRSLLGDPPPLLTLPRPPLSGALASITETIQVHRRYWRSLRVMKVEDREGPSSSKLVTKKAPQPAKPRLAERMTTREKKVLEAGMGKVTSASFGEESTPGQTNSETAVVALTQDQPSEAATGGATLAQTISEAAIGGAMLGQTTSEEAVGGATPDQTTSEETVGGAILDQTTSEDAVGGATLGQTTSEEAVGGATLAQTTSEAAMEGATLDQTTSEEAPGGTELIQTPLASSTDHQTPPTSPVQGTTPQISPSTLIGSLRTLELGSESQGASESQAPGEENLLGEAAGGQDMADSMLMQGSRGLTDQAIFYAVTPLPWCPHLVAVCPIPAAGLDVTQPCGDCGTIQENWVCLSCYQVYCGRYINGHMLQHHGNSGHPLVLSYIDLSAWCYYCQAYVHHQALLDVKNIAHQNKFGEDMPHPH
Test: Inhibition of human HDAC6 using fluorogenic HDAC substrate

IC50 [µM]	Compound
0.008	O=C(NO)c1ccc(CN2c3ccccc3CCC[C@@H]3CCCC[C@H]32)cc1
0.033	O=C(NO)c1ccc(CN2c3ccccc3C[C@@H]3CCCCC[C@H]32)cc1
0.011	O=C(NO)c1ccc(CN2c3cc(C(F)(F)F)ccc3CCC[C@@H]3CCCC[C@H]32)cc1
0.0082	O=C(NO)c1ccc(CN2c3ccccc3C3C2CCS3(=O)=O)cc1 (configuration not stated)

Target: T2, Histone deacetylase 8 (Homo sapiens, UniProt Q9BY41)
T2 sequence (Q9BY41 whole entry): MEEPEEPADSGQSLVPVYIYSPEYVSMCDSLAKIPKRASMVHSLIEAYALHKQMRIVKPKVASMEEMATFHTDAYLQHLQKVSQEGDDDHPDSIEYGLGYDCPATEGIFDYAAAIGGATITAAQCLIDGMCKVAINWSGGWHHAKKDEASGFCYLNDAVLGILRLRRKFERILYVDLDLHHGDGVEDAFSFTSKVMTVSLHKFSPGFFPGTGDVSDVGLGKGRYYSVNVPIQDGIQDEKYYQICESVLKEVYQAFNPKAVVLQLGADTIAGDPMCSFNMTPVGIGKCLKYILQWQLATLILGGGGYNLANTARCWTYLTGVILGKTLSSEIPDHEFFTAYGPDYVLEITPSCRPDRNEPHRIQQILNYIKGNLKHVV
Test: Inhibition of human HDAC8 using fluorogenic HDAC substrate

IC50 [µM]	Compound
1.1	O=C(NO)c1ccc(CN2c3ccccc3CCC[C@@H]3CCCC[C@H]32)cc1
6.7	O=C(NO)c1ccc(CN2c3ccccc3C[C@@H]3CCCCC[C@H]32)cc1
2	O=C(NO)c1ccc(CN2c3cc(C(F)(F)F)ccc3CCC[C@@H]3CCCC[C@H]32)cc1
1.9	O=C(NO)c1ccc(CN2c3ccccc3C3C2CCS3(=O)=O)cc1 (configuration not stated)

Target: Histone deacetylase 9 (Homo sapiens, UniProt Q9UKV0)
Test: Inhibition of human HDAC9 using fluorogenic HDAC substrate

Chain of Histone deacetylase 9 (Q9UKV0 whole entry): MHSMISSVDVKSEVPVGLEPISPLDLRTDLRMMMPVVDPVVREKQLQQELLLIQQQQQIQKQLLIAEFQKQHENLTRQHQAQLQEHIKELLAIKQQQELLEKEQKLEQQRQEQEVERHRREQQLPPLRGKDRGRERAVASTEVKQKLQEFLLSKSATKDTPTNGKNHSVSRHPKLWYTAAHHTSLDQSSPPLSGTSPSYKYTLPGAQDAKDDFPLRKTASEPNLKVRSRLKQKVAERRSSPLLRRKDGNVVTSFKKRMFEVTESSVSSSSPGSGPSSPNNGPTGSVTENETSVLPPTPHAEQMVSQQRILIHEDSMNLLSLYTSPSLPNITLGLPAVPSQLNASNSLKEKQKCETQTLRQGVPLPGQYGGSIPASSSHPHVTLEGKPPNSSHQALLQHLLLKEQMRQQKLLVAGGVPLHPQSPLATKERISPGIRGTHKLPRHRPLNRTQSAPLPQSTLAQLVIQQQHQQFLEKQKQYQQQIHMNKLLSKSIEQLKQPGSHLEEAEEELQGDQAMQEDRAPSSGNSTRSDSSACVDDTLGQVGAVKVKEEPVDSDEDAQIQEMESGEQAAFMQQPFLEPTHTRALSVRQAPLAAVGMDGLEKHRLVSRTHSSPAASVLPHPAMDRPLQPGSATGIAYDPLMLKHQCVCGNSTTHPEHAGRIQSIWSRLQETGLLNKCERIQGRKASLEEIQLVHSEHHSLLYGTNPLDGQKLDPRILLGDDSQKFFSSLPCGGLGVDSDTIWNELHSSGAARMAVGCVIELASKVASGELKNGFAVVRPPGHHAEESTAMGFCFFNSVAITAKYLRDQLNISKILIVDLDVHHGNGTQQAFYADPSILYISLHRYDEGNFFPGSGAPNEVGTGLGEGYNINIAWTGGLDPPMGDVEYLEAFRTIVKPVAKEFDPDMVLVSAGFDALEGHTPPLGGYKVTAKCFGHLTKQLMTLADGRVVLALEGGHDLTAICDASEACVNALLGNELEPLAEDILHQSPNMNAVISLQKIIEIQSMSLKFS

IC50 [µM]	Compound
13	O=C(NO)c1ccc(CN2c3ccccc3CCC[C@@H]3CCCC[C@H]32)cc1
> 30	O=C(NO)c1ccc(CN2c3ccccc3C[C@@H]3CCCCC[C@H]32)cc1
> 30	O=C(NO)c1ccc(CN2c3cc(C(F)(F)F)ccc3CCC[C@@H]3CCCC[C@H]32)cc1
0.2	O=C(NO)c1ccc(CN2c3ccccc3C3C2CCS3(=O)=O)cc1 (configuration not stated)

Target: T3, Polyamine deacetylase HDAC10 (Homo sapiens, UniProt Q969S8)
T3 sequence (Q969S8 whole entry): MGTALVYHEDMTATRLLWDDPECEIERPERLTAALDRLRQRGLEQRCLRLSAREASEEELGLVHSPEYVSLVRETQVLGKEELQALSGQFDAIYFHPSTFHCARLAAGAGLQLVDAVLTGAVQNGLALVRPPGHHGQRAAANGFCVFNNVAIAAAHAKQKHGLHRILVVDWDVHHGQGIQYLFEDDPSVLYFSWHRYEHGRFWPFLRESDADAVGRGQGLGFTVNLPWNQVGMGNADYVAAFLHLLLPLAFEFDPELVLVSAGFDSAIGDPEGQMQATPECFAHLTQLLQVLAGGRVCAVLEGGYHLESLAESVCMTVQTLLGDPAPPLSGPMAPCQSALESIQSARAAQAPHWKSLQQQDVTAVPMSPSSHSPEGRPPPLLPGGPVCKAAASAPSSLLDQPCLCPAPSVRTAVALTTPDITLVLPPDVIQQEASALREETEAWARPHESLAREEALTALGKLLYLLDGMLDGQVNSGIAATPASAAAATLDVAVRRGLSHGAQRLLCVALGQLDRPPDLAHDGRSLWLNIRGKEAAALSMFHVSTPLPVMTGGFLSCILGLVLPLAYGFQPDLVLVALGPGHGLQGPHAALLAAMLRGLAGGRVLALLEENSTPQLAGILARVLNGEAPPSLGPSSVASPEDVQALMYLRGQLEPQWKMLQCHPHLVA
Test: Inhibition of human HDAC10 using fluorogenic HDAC substrate

IC50 [µM]	Compound
10	O=C(NO)c1ccc(CN2c3ccccc3CCC[C@@H]3CCCC[C@H]32)cc1
> 30	O=C(NO)c1ccc(CN2c3ccccc3C[C@@H]3CCCCC[C@H]32)cc1
9.4	O=C(NO)c1ccc(CN2c3cc(C(F)(F)F)ccc3CCC[C@@H]3CCCC[C@H]32)cc1
13	O=C(NO)c1ccc(CN2c3ccccc3C3C2CCS3(=O)=O)cc1 (configuration not stated)

Target: T4, Histone deacetylase 11 (Homo sapiens, UniProt Q96DB2)
T4 sequence (Q96DB2 whole entry): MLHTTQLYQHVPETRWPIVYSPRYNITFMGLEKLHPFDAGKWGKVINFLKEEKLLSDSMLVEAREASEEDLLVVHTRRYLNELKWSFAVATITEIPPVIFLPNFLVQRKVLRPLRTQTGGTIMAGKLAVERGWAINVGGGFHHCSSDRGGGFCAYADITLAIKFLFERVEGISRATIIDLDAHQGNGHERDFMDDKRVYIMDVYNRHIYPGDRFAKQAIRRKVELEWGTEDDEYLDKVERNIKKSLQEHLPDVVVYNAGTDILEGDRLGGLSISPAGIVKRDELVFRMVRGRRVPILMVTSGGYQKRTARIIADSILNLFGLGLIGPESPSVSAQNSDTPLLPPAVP
Test: Inhibition of human HDAC11 using fluorogenic HDAC substrate

IC50 [µM]	Compound
2.4	O=C(NO)c1ccc(CN2c3ccccc3CCC[C@@H]3CCCC[C@H]32)cc1
1.2	O=C(NO)c1ccc(CN2c3ccccc3C[C@@H]3CCCCC[C@H]32)cc1
0.82	O=C(NO)c1ccc(CN2c3cc(C(F)(F)F)ccc3CCC[C@@H]3CCCC[C@H]32)cc1
17	O=C(NO)c1ccc(CN2c3ccccc3C3C2CCS3(=O)=O)cc1 (configuration not stated)
